US4584377A, “Novel Fredericamycin A derivatives” (SS Pharmaceutical Co., Ltd., priority 1983, dated 1986)
Values after ≈ are worked out from the molar mass of the structure shown. Where two headings read alike, the source gives them in different places.

Assays:
[1] = system: Candida albicans NHL 4019; test: MIC, yeasts and molds (agar culture); type: cell-based; conditions: NHL4019, 28° C., 120 hours, glucose-peptone agar, read-out: Minimum inhibitory concentration MIC
[2] = system: Streptococcus faecalis IFO 12964; test: MIC, antibacterial activity (agar culture); type: cell-based; conditions: Enterococcus faecalis, IFO12964, 37° C., 18-20 hours, Mueller-Hinton agar, read-out: Minimum inhibitory concentration MIC
[3] = system: Staphylococcus aureus Smith; test: MIC, antibacterial activity (agar culture); type: cell-based; conditions: 37° C., 18-20 hours, Mueller-Hinton agar, read-out: Minimum inhibitory concentration MIC
[4] = system: Piricularia oryzae IAM 5016; test: microbe, parasite or virus in culture; type: cell-based
[5] = system: Penicillium chrysogenum ATCC 6010; test: MIC, yeasts and molds (agar culture); type: cell-based; conditions: ATCC6010, 28° C., 120 hours, glucose-peptone agar, read-out: Minimum inhibitory concentration MIC
[6] = system: Staphylococcus epidermidis ATCC 12228; test: MIC, antibacterial activity (agar culture); type: cell-based; conditions: ATCC12228, 37° C., 18-20 hours, Mueller-Hinton agar, read-out: Minimum inhibitory concentration MIC
Saccharomyces ruxii 6507 = test: MIC, yeasts and molds (agar culture); type: cell-based; conditions: 28° C., 120 hours, glucose-peptone agar, read-out: Minimum inhibitory concentration MIC
[7] = system: Pseudomonas aeruginosa IFO 13736; test: MIC, antibacterial activity (agar culture); type: cell-based; conditions: IFO13736, 37° C., 18-20 hours, Mueller-Hinton agar, read-out: Minimum inhibitory concentration MIC
Escherichia coli 0-1 = test: MIC, antibacterial activity (agar culture); type: cell-based; conditions: 01, 37° C., 18-20 hours, Mueller-Hinton agar, read-out: Minimum inhibitory concentration MIC
[8] = system: Bacillus subtilis ATCC 6633; test: MIC, antibacterial activity (agar culture); type: cell-based; conditions: ATCC6633, 37° C., 18-20 hours, Mueller-Hinton agar, read-out: Minimum inhibitory concentration MIC
[9] = system: Aspergillus niger ATCC 9642; test: MIC, yeasts and molds (agar culture); type: cell-based; conditions: ATCC9642, 28° C., 120 hours, glucose-peptone agar, read-out: Minimum inhibitory concentration MIC
[10] = system: Debaryomyces Kloecheri IFO 0015; test: MIC, yeasts and molds (agar culture); type: cell-based; conditions: IFO0015, 28° C., 120 hours, glucose-peptone agar, read-out: Minimum inhibitory concentration MIC
Ehrlich carcinoma = test: Antitumor effect, survival of tumor-inoculated mice; type: in vivo, ICR mice; conditions: intraperitoneally, once a day for 10 days; for response vs control in vivo at 2 mg/kg/day / response vs control in vivo at 4 mg/kg/day / response vs control in vivo at 8 mg/kg/day / response vs control in vivo at 0.5 mg/kg/day / response vs control in vivo at 1 mg/kg/day: Mus musculus, ip, 240 h, read-out: percentage of mean survival time of test and control animals
[11] = system: Trichophyton mentagrophytes QM 248; test: MIC, yeasts and molds (agar culture); type: cell-based; conditions: QM248, 28° C., 120 hours, glucose-peptone agar, read-out: Minimum inhibitory concentration MIC
Sarcina lutea ATCC 9341 = test: MIC, antibacterial activity (agar culture); type: cell-based; conditions: Micrococcus luteus, ATCC9341, 37° C., 18-20 hours, Mueller-Hinton agar, read-out: Minimum inhibitory concentration MIC
[12] = system: Micrococcus lysodeikticus IFO 3333; test: MIC, antibacterial activity (agar culture); type: cell-based; conditions: Micrococcus luteus, IFO3333, 37° C., 18-20 hours, Mueller-Hinton agar, read-out: Minimum inhibitory concentration MIC
mouse leukemia P-388 = test: Antitumor effect, survival of tumor-inoculated mice; type: in vivo, CDF1 mice; conditions: intraperitoneally, once a day for 10 days
Method: Antitumor effects of some Fredericamycin A derivatives against Ehrlich carcinoma, Meth-A fibrosarcoma and mouse leukemia P-388 were tested in accordance with the following procedures. Antitumor effects against Ehrlich carcinoma and Meth-A fibrosarcoma are expressed by percentage of mean survival time of test and control animals. Antitumor effects against P-388 are expressed by percentage of median survival time of test and control animals.
(ii) Meth-A fibrosarcoma and mouse leukemia P-388:
1×10^6 tumor cells were inoculated to CDF1 mice (.male., Charles River Japan Inc.) intraperitoneally. Each tested compound was given intraperitoneally once a day for 10 days from 1 day after tumor inoculation.

physchem = type: physicochemical; conditions: 10 μg/ml in dimethylsulfoxide/physiological saline; for Percentage remainder: 0 hr.; for remaining at 3 h / remaining at 6 h / remaining at 24 h / remaining at 48 h / remaining at 72 h: read-out: Percentage remainder
Method: The stability of some Fredericamycin A derivatives and Fredericamycin A in their aqueous solutions were tested in accordance with the following procedures.
The test compounds were individually dissolved in dimethylsulfoxide, followed by dilution of the resulting solutions with physiological saline to adjust the final concentrations of the test compounds and Fredericamycin to 10 μg/ml respectively. The thus-prepared test solutions were then subjected to high performance liquid chromatography after predetermined time intervals to measure the percentage remainders of the test compounds.

[13] = 120 h; read-out: Minimum inhibitory concentration MIC

CCCCCc1cc2cc3c(c(O)c2c(=O)[nH]1)C1(CC3)C(=O)c2c(OC(C)=O)c3c(c(OC(C)=O)c2C1=O)C(=O)C(OC)=CC3=O (stereo not shown) [Compound 18, diacetyltetrahydrofredericamycin A]
MIC [1]: > 100 mg/L | MIC [2]: 25 mg/L (≈ 39.8 µM) | MIC [3]: 25 mg/L (≈ 39.8 µM) | MIC ([4]; 120 h, read-out: Minimum inhibitory concentration MIC): 0.78 mg/L (≈ 1.24 µM) | MIC [5]: > 100 mg/L | MIC [6]: 0.78 mg/L (≈ 1.24 µM) | MIC (Saccharomyces ruxii 6507): > 100 mg/L | MIC [7]: > 100 mg/L | MIC (Escherichia coli 0-1): > 100 mg/L | MIC [8]: 50 mg/L (≈ 79.7 µM) | MIC [9]: > 100 mg/L | MIC [10]: > 100 mg/L | response vs control in vivo at 2 mg/kg/day (Ehrlich carcinoma; 2.0 mg/kg/day): 125% | response vs control in vivo at 4 mg/kg/day (Ehrlich carcinoma): > 188% | response vs control in vivo at 8 mg/kg/day (Ehrlich carcinoma): > 212% | MIC [11]: > 100 mg/L | MIC (Sarcina lutea ATCC 9341): 25 mg/L (≈ 39.8 µM) | MIC [12]: 25 mg/L (≈ 39.8 µM) | percentage of median survival time of test and control animals (mouse leukemia P-388; 2.0 mg/kg/day): 138% | percentage of median survival time of test and control animals (mouse leukemia P-388; 4.0 mg/kg/day): 142% | percentage of median survival time of test and control animals (mouse leukemia P-388; 8.0 mg/kg/day): 147%

C/C=C/C=C/c1cc2cc3c(c(O)c2c(=O)[nH]1)C1(CC3)C(=O)c2c(OC(=O)CCCCC)c3c(c(OC(=O)CCCCC)c2C1=O)C(=O)C(OC)=CC3=O (stereo not shown) [Compound 5]
Percentage remainder (physchem): 100% | remaining at 3 h (physchem): 93.2% | remaining at 6 h (physchem): 88% | remaining at 24 h (physchem): 67.6% | remaining at 48 h (physchem): 57.8% | remaining at 72 h (physchem): 47.9% | MIC [4, 13]: 0.39 mg/L (≈ 0.53 µM) | MIC [6]: 25 mg/L (≈ 34 µM) | percentage of mean survival time of test and control animals (Ehrlich carcinoma; 0.5 mg/kg/day): over 247% | percentage of mean survival time of test and control animals (Ehrlich carcinoma; 1.0 mg/kg/day): over 229% | percentage of mean survival time of test and control animals (Ehrlich carcinoma; 2.0 mg/kg/day): over 256%

C/C=C/C=C/c1cc2cc3c(c(O)c2c(=O)[nH]1)C1(CC3)C(=O)c2c(OC(=O)c3ccccc3)c3c(c(OC(=O)c4ccccc4)c2C1=O)C(=O)C(OC)=CC3=O (stereo not shown) [Compound 8]
response vs control in vivo at 0.5 mg/kg/day (Ehrlich carcinoma; 0.5 mg/kg/day): 166% | response vs control in vivo at 1 mg/kg/day (Ehrlich carcinoma; 1.0 mg/kg/day): > 199% | response vs control in vivo at 2 mg/kg/day (Ehrlich carcinoma; 2.0 mg/kg/day): 97%

C/C=C/C=C/c1cc2cc3c(c(O)c2c(=O)[nH]1)C1(CC3)C(=O)c2c(OC(=O)CC(C)C)c3c(c(OC(=O)CC(C)C)c2C1=O)C(=O)C(OC)=CC3=O (stereo not shown) [Compound 2, Fredericamycin A diisovalerate]
response vs control in vivo at 0.5 mg/kg/day (Ehrlich carcinoma; 0.5 mg/kg/day): 120% | response vs control in vivo at 1 mg/kg/day (Ehrlich carcinoma; 1.0 mg/kg/day): > 168% | response vs control in vivo at 2 mg/kg/day (Ehrlich carcinoma; 2.0 mg/kg/day): > 229%

CCCCCc1cc2cc3c(c(O)c2c(=O)[nH]1)C1(CC3)C(=O)c2c(c(OC(C)=O)c3c(OC(C)=O)c(OC)cc(OC(C)=O)c3c2OC(C)=O)C1=O (stereo not shown) [Compound 12, leucotetraacetyltetrahydrofredericamycin A]
Percentage remainder (physchem): 100% | remaining at 3 h (physchem): 99% | remaining at 6 h (physchem): 98.3% | remaining at 24 h (physchem): 97.1% | remaining at 48 h (physchem): 95.7% | remaining at 72 h (physchem): 94.4% | response vs control in vivo at 2 mg/kg/day (Ehrlich carcinoma; 2.0 mg/kg/day): 116% | response vs control in vivo at 4 mg/kg/day (Ehrlich carcinoma): 136% | response vs control in vivo at 8 mg/kg/day (Ehrlich carcinoma): > 203% | percentage of median survival time of test and control animals (mouse leukemia P-388; 2.0 mg/kg/day): 142% | percentage of median survival time of test and control animals (mouse leukemia P-388; 4.0 mg/kg/day): 146% | percentage of median survival time of test and control animals (mouse leukemia P-388; 8.0 mg/kg/day): 152%

C/C=C/C=C/c1cc2cc3c(c(O)c2c(=O)[nH]1)C1(CC3)C(=O)c2c(OC(=O)c3ccc(C)cc3)c3c(c(OC(=O)c4ccc(C)cc4)c2C1=O)C(=O)C(OC)=CC3=O (stereo not shown) [Compound 3, Fredericamycin A di-p-methylbenzoate]
MIC [4, 13]: 6.25 mg/L (≈ 8.06 µM) | MIC [6]: 25 mg/L (≈ 32.2 µM)
